Reference: patent US20260232642A1, “RNA-BINDING MOLECULES WITH A SMALL CORE SCAFFOLD (R-SCORE) AND USES THEREOF” (Max-Planck-Gesellschaft zur Förderung der Wissenschaften …, priority 2022, published 2026)
Read-outs that look alike come from different tables or passages of the source.

How the values were obtained:
JAR cells = assay: MTT assay, JAR; assay type: cell-based, human; conditions: 72 h, choriocarcinoma cell line, read-out: Cell lines IC50 [μM] JAR
Procedure: (§1) MAD-MB-231, MCF-7 and JAR cells were cultured in Dulbecco's modified Eagle's (DMEM) medium supplemented with 10% Fetal Bovine Serum (FBS), 100 u/mL penicillin-streptomycin. Jurkat, Molt-4 and Ramos cells were cultured in Roswell Park Memorial Institute (RPMI) 1640 medium with 10% Fetal Bovine Serum (FBS), 100 u/mL penicillin-streptomycin. All cell lines grown in an incubator with humidified 5% CO2 at 37° C.
(§2) Jurkat, Molt-4 and Ramos cells were collected and seeded into 96-well plates at a density of 8000-10000 per well and treated with compounds. MCF-7, MDA-MB-231 and JAR cells were collected and seeded into 96-well plates at a density of 2000-3000 per well and cultured overnight to adherent before treat with compounds. After exposed to increasing concentrations of compounds for 72 h, the cells in each well were mixed with 20 μL of 5 mg/ml MTT (3-(4,5-dimethylthiazol-2-yl)-2,5-diphenyltetrazolium bromide) for 2 h, then add 50 μL of 20% SDS/0.01 M HCl incubated overnight, and detected the absorbance at a wavelength of 570 nm.
(§3) Inhibition rate was calculated using the equation: […]
(§4) The IC50 values were calculated by using GraphPad Prism 9 software fitting to a dose-response inhibition equation.

[1] = system: precursor microRNA-17 hairpin (pre-miR-17 hp); assay: Differential scanning fluorimetry (DSF), pre-miR-17 hairpin; assay type: binding; conditions: 60 uM compound, 1 μM hairpin in PBS, Tm of compound minus Tm of DMSO control
Procedure: (§5) To measure the binding between compounds and precursor microRNA-21 hairpin (pre-miR-21 hp) or precursor microRNA-17 hairpin (pre-miR-17 hp), DSF was performed as previously described with modification (ACS Chem. Biol. 2017, 12, 2, 435-443). Precursor microRNA hairpin was dissolved in PBS and annealed by briefly heating to 95° C. for 3 min and slowly cooling to rt. Assay was performed in duplicates using white qPCR 8-strips (VWR) with a total volume of 10 μL in PBS. The total reaction consisted of 1 μM precursor microRNA hairpin, 1% test compound (DMSO dilution) and 2×SYBR GreenII (Thermo Fisher Scientific). Compounds were incubated with precursor microRNA hairpin at for 10 min at rt, then SYBR GreenII was added to each well, mixed and incubated 10 min at rt. The strips were spined and loaded to the RT-PCR detection system (BIO-RAD CFX Connect), the fluorescence intensity was obtained every 1° C. for 30 s in the range of 20° C. to 80° C.
(§6) The melting temperature (Tm) was determined by the maximum of the negative of the first derivative of the fluorescence vs temperature melting curves. The ΔTm was calculated by the Tm value of compound subtract the Tm value of the DMSO control.

[2] = system: precursor microRNA-21 hairpin (pre-miR-21 hp); assay: Differential scanning fluorimetry (DSF), pre-miR-21 hairpin; assay type: binding; conditions: 60 uM compound, 1 μM hairpin in PBS, Tm of compound minus Tm of DMSO control
Procedure: as §5, §6

MCF-7 cells = assay: MTT assay, MCF-7; assay type: cell-based, human; conditions: breast cancer cell line, read-out: Cell lines IC50 [μM] MCF-7
Procedure: as §1, §2, §3, §4

MDA-MB-231 cells = assay: MTT assay, MDA-MB-231; assay type: cell-based, human; conditions: breast cancer cell line, read-out: Cell lines IC50 [μM] MDA-MB-231
Procedure: as §1, §2, §3, §4

Ramos cells = assay: MTT assay, Ramos; assay type: cell-based, human; conditions: 72 h, Burkitt lymphoma cell line, read-out: Cell lines IC50 [μM] Ramos
Procedure: as §1, §2, §3, §4

Jurkat cells = assay: MTT assay, Jurkat; assay type: cell-based, human; conditions: 72 h, acute leukemia cell line, read-out: Cell lines IC50 [μM] Jurkat
Procedure: as §1, §2, §3, §4

Molt-4 cells = assay: MTT assay, Molt-4; assay type: cell-based, human; conditions: acute leukemia cell line, read-out: Cell lines IC50 [μM] Molt-4
Procedure: as §1, §2, §3, §4

| Compound | IC50 (MCF-7 cells; 72 h) | IC50 (MDA-MB-231 cells; 72 h) | IC50 (Ramos cells; Homo sapiens, Ramos) | IC50 (Jurkat cells; Homo sapiens, Jurkat) | IC50 (Molt-4 cells; Homo sapiens, MOLT-4, 72 h) | IC50 (MCF-7 cells; Homo sapiens, MCF7, 72 h) | IC50 (MDA-MB-231 cells; Homo sapiens, MDA-MB-231, 72 h) | IC50 (Ramos cells) | IC50 (Jurkat cells) | IC50 (Molt-4 cells; 72 h) | IC50 (JAR cells) | ΔTm (pre-miR-17 hp) @60 uM [° C.] [1] | ΔTm (pre-miR-21 hp) @60 uM [° C.] [2] | IC50 (JAR cells; Homo sapiens) |
| --- | --- | --- | --- | --- | --- | --- | --- | --- | --- | --- | --- | --- | --- | --- |
| 3-(4-(1H-benzo[d]imidazol-6-yl)phenyl)-1-(3-aminothieno[2,3-b]pyridine-2-carbonyl)-4-(hydroxymethyl)azetidine-2-carbonitrile [Compound A7] | > 20 µM | > 20 µM | – | – | – | – | – | – | – | – | 5.74 µM | 0 °C | 0 °C | – |
| N#CC1C(c2ccc(-c3ccc(C(F)(F)F)cc3)cc2)C(CO)N1C(=O)c1ccc(NC(=O)c2sc3ncccc3c2N)cc1 (centres unmarked) [Compound A1, 1-(1-amino-(3-aminothieno[2,3-b]pyridine-2-carbonyl)phenyl-4-carbonyl)-4-(hydroxymethyl)-3-(4′-(trifluoromethyl)-[1,1′-biphenyl]-4-yl) azetidine-2-carbonitrile] | – | – | 4.81 µM | 2.81 µM | 2.91 µM | 5.95 µM | 10 µM | – | – | – | – | −3 °C | −2 °C | 2.95 µM |
| N#CC1C(c2ccc(-c3ccc(C(F)(F)F)cc3)cc2)C(CO)N1C(=O)c1sc2ncccc2c1N (centres unmarked) [Compound A2, 1-(3-aminothieno[2,3-b]pyridine-2-carbonyl)-4-(hydroxymethyl)-3-(4′-(trifluoromethyl)-[1,1 biphenyl]-4-yl) azetidine-2-carbonitrile] | – | – | – | – | – | – | – | 3.8 µM | 3.35 µM | 4.61 µM | 3.41 µM | −2 °C | −2.5 ± 0.5 °C | – |
| N#CC1C(c2ccc(-c3ccc(C(F)(F)F)cc3)cc2)C(CO)N1C(=O)c1sc2ncccc2c1N (centres unmarked) [Compound A3, 1-(3-aminothieno[2,3-b]pyridine-2-carbonyl)-4-(hydroxymethyl)-3-(4′-(trifluoromethyl)-[1,1′-biphenyl]-4-yl) azetidine-2-carbonitrile] | – | – | 7.03 µM | 3.73 µM | – | 6.22 µM | 18.6 µM | – | – | 10.8 µM | 9.75 µM | −6.5 ± 0.5 °C | −6 °C | – |
| CCCN1C(CO)C(c2ccc(-c3ccc(C(F)(F)F)cc3)cc2)C1CNC(=O)c1sc2ncccc2c1N (centres unmarked) [Compound A4, 3-amino-N-((4-(hydroxymethyl)-1-propyl-3-(4′-(trifluoromethyl)-[1,1′-biphenyl]-4-yl)azetidin-2-yl)methyl) thieno[2,3-b]pyridine-2-carboxamide] | 5.79 µM | 7.02 µM | – | – | – | – | – | – | – | – | 2.3 µM | −1 °C | −2 °C | – |
| CCCN1C(CO)C(c2ccc(-c3ccc(C(F)(F)F)cc3)cc2)C1CNC(=O)c1sc2ncccc2c1N (centres unmarked) [Compound A5, 3-amino-N-((4-(hydroxymethyl)-1-propyl-3-(4′-(trifluoromethyl)-[1,1′-biphenyl]-4-yl)azetidin-2-yl)methyl) thieno[2,3-b]pyridine-2-carboxamide] | – | – | 5.05 µM | 5.13 µM | 5.49 µM | – | – | – | – | – | – | – | – | – |
| CCCN1C(CO)C(c2ccc(-c3ccc4nc[nH]c4c3)cc2)C1CNC(=O)c1sc2ncccc2c1N (centres unmarked) [Compound A8, N-((3-(4-(1H-benzo[d]imidazol-6-yl)phenyl)-4-(hydroxymethyl)-1-propylazetidin-2-yl)methyl)-3-aminothieno[2,3-b]pyridine-2-carboxamide] | – | – | 26.8 µM | 19.1 µM | 8.5 µM | – | – | – | – | – | – | – | – | – |
| CCCN1C(CO)C(c2ccc(-c3ccc4nc[nH]c4c3)cc2)C1CNC(=O)c1sc2ncccc2c1N (centres unmarked) [Compound A9, N-((3-(4-(1H-benzo[d]imidazol-6-yl)phenyl)-4-(hydroxymethyl)-1-propylazetidin-2-yl)methyl)-3-aminothieno[2,3-b]pyridine-2-carboxamide] | – | – | – | – | – | > 20 µM | > 20 µM | > 20 µM | > 20 µM | 11.4 µM | – | 0 °C | 0 °C | 9.56 µM |

Now from value to compound, other results behind:

| IC50 (MCF-7 cells; 72 h) | IC50 (MDA-MB-231 cells; 72 h) | IC50 (Ramos cells; Homo sapiens, Ramos) | IC50 (Jurkat cells; Homo sapiens, Jurkat) | IC50 (Molt-4 cells; Homo sapiens, MOLT-4, 72 h) | IC50 (MCF-7 cells; Homo sapiens, MCF7, 72 h) | IC50 (MDA-MB-231 cells; Homo sapiens, MDA-MB-231, 72 h) | IC50 (Ramos cells) | IC50 (Jurkat cells) | IC50 (Molt-4 cells; 72 h) | Compound | IC50 (JAR cells) | ΔTm (pre-miR-17 hp) @60 uM [° C.] [1] | ΔTm (pre-miR-21 hp) @60 uM [° C.] [2] | IC50 (JAR cells; Homo sapiens) |
| --- | --- | --- | --- | --- | --- | --- | --- | --- | --- | --- | --- | --- | --- | --- |
| – | – | – | 6.31 µM | 7.01 µM | 9.92 µM | 14.4 µM | 7.35 µM | – | – | CNc1nc(N2CC(c3ccc(-c4c(C)noc4C)cc3)C2C#N)nc2ccccc12 (centres unmarked) [Compound B1, 3-(4-(3,5-dimethylisoxazol-4-yl)phenyl)-1-(4-(methylamino)quinazolin-2-yl) azetidine-2-carbonitrile] | – | 0 °C | 0 °C | 1.74 µM |
| 5.72 µM | 12.5 µM | – | – | – | – | – | – | – | – | Cc1noc(C)c1-c1ccc(C2CN(C(=O)c3sc4ncccc4c3N)C2C#N)cc1 (centres unmarked) [Compound B3, 1-(3-aminothieno[2,3-b]pyridine-2-carbonyl)-3-(4-(3,5-dimethylisoxazol-4-yl)phenyl) azetidine-2-carbonitrile] | 1.28 µM | – | – | – |
| 12.5 µM | – | 12.4 µM | 7.3 µM | 10.6 µM | – | > 20 µM | – | – | – | Cc1noc(C)c1-c1ccc(C2CN(C(=O)c3sc4ncccc4c3N)C2C#N)cc1 (centres unmarked) [Compound B4, 1-(3-aminothieno[2,3-b]pyridine-2-carbonyl)-3-(4-(3,5-dimethylisoxazol-4-yl)phenyl) azetidine-2-carbonitrile] | 5.92 µM | 0 °C | 0 °C | – |
| – | – | 1.82 µM | 5.47 µM | 4.79 µM | 5.23 µM | 7.07 µM | – | – | – | CNc1nc(N2CC(C3(C(F)(F)F)C=CC(c4ccccc4)=CC3)C2C#N)nc2ccccc12 (centres unmarked) [Compound B6, 1-(4-(methylamino)quinazolin-2-yl)-3-(4 (trifluoromethyl)-[1,1′-biphenyl]-4-yl) azetidine-2-carbonitrile] | – | 1.25 °C | – | 1.29 µM |
| – | – | 6.61 µM | 7.42 µM | 13.9 µM | – | – | – | – | – | N#CC1C(c2ccc(-c3ccc(C(F)(F)F)cc3)cc2)CN1C(=O)c1sc2ncccc2c1N (centres unmarked) [Compound B7, 1-(3-aminothieno[2,3-b]pyridine-2-carbonyl)-3-(4′-(trifluoromethyl)-[1,1′-biphenyl]-4-yl) azetidine-2-carbonitrile] | 1.16 µM | – | – | 1.5 µM |
